Measured values taken from patent publication US20230365537A1, “POLO LIKE KINASE 4 INHIBITORS” (ORIC Pharmaceuticals, Inc., priority 2021, published 2023).

Assays:
CHP-134 cells = assay: CHP134 CellTiter-Glo (CTG) Assay; type: cell-based; details: Homo sapiens, CHP-134, 120 h, 5 days, viable cells by CellTiter-Glo
How it was run: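 Nine-point 1:3 dilution series, diluted into growth media, added in quadruplicate to CHP-134 cells plated 16 h earlier at 200 cells/well.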

human recombinant PLK4 = human recombinant PLK4 (Homo sapiens (Human), UniProt O00444); assay: PLK4 Biochemical Assay (ADP-Glo); details: 0.5 nM PLK4, 8.0 µM ATP, 4.7 µM MBP, 6 hours at RT
Sequence of human recombinant PLK4 (O00444 whole entry): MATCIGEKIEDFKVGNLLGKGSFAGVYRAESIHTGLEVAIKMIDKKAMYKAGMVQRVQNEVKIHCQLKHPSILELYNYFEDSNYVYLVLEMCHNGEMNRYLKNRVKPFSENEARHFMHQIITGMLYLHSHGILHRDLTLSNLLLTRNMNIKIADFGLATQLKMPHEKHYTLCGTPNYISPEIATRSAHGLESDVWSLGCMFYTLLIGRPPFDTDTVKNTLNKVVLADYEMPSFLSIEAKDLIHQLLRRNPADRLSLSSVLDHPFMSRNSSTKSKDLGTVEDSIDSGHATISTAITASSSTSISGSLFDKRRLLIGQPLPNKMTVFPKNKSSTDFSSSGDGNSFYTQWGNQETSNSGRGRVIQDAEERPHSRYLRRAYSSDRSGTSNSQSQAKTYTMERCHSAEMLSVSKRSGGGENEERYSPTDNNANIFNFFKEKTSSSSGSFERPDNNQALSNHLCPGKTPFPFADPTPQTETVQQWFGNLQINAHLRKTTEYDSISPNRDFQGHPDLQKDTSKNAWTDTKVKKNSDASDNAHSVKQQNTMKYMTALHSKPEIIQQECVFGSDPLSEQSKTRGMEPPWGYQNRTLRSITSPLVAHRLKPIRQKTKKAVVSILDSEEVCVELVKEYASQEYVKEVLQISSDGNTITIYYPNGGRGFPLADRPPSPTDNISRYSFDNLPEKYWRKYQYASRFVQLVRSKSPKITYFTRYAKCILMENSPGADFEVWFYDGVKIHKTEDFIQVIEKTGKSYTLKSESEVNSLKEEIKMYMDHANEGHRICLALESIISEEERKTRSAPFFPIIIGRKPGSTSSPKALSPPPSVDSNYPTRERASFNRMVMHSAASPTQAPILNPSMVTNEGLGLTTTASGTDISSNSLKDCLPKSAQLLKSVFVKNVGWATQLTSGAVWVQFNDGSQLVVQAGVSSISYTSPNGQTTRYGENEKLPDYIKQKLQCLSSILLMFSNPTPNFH
How it was run: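 Luminescent ADP-Glo detection quantified ADP production, with ATP depletion for 40 min and detection for 30 min at room temperature. Compound and PLK4 (1.0 nM stock addition) were preincubated 15 min in HEPES pH 7.5 buffer containing MgCl2, EGTA, DTT, Brij-35 and BSA. IC50 values were obtained by four-parameter nonlinear regression.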

[1] = biological target: human recombinant Aurora B (Homo sapiens (Human), UniProt Q96GD4); assay: Aurora B Kinase Biochemical Assay (ADP-Glo); details: ratio of Aurora B IC50 to PLK4 IC50 (selectivity)
Sequence of human recombinant Aurora B (Q96GD4 whole entry): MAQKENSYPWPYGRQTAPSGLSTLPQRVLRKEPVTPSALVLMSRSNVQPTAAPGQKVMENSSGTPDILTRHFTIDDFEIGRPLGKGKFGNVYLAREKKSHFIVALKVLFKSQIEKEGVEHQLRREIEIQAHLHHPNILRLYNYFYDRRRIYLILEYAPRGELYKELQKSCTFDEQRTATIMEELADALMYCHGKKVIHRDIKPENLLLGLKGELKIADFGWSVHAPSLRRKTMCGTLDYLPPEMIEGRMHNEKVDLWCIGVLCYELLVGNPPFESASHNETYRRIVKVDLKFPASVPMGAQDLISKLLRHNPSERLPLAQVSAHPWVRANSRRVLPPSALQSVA
How it was run: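 IC50 derived by four-parameter nonlinear fit of ADP-Glo luminescence (ADP produced). Compound was preincubated 15 min at RT with 20 nM recombinant human Aurora B, in 50 mM HEPES pH 7.5, 10 mM MgCl2, 1 mM EGTA, 1 mM DTT, 0.01% Brij-35/BSA.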

[2] = biological target: human recombinant Aurora A (Homo sapiens (Human), UniProt O14965); assay: Aurora A Kinase Biochemical Assay (ADP-Glo); details: ratio of Aurora A IC50 to PLK4 IC50 (selectivity)
Sequence of human recombinant Aurora A (O14965 whole entry): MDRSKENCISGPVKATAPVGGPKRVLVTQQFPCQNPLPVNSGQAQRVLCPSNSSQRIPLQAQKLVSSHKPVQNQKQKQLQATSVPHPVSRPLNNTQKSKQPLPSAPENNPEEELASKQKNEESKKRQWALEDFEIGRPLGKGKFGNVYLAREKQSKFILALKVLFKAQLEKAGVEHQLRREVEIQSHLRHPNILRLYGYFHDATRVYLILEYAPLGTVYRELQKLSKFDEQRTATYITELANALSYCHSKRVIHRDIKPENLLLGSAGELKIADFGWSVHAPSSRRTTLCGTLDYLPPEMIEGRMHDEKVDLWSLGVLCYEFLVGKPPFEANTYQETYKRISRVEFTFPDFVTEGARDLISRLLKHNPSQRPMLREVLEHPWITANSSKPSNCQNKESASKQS

IC50 (human recombinant PLK4) [nM]	[Aurora B IC50 (nM)]/[PLK4 IC50 (nM)] [1]	[Aurora A IC50 (nM)]/[PLK4 IC50 (nM)] [2]	Structure (SMILES)	IC50 (CHP-134 cells) [nM]
4.22	483.0689	2292.2093	COc1ccc2c(c1)[C@]1(C[C@H]1c1ccc3c(Nc4nc(C)ncc4OCC(F)F)n[nH]c3c1)C(=O)N2 [Example 147, (1R,2S)-2-(3-{[5-(2,2-difluoroethoxy)-2-methylpyrimidin-4-yl]amino}-1H-indazol-6-yl)-5′-methoxyspiro[cyclopropane-1,3′-indol]-2′(1′H)-one]	1300
6.87	338.8646	397.3799	COc1ccc2c(c1)[C@]1(C[C@H]1c1ccc3c(Nc4cc(C)ccc4OC)n[nH]c3c1)C(=O)N2 [Example 148, (1R,2S)-5′-methoxy-2-[3-(2-methoxy-5-methylanilino)-1H-indazol-6-yl]spiro[cyclopropane-1,3′-indol]-2′(1′H)-one]	3570
3.15	879.4799	3193.7837	COc1ccc2c(c1)[C@]1(C[C@H]1c1ccc3c(Nc4nc(C)ncc4OCC(F)(F)F)n[nH]c3c1)C(=O)N2 [Example 149, (1R,2S)-5′-methoxy-2-(3-{[2-methyl-5-(2,2,2-trifluoroethoxy)pyrimidin-4-yl]amino}-1H-indazol-6-yl)spiro[cyclopropane-1,3′-indol]-2′(1′H)-one]	844
8.13	366.7569	720.7185	COc1ccc2c(c1)[C@]1(C[C@H]1c1ccc3c(Nc4ccc(C)nc4OC)n[nH]c3c1)C(=O)N2 [Example 150, (1R,2S)-5′-methoxy-2-{3-[(2-methoxy-6-methylpyridin-3-yl)amino]-1H-indazol-6-yl}spiro[cyclopropane-1,3′-indol]-2′(1′H)-one]	3160
1.91	123.6097	1254.4596	COc1ccc2c(c1)[C@]1(C[C@H]1c1ccc3c(Nc4nc(C)nc5c4OCC5)n[nH]c3c1)C(=O)N2 [Example 153, (1R,2S)-5′-methoxy-2-{3-[(2-methyl-6,7-dihydrofuro[3,2-d]pyrimidin-4-yl)amino]-1H-indazol-6-yl}spiro[cyclopropane-1,3′-indol]-2′(1′H)-one]	876
0.976	655.2254	1373.9754	COc1ccc2c(c1)[C@]1(C[C@H]1c1ccc3c(Nc4nc(C5CCOCC5)ncc4OC)n[nH]c3c1)C(=O)N2 [Example 154, (1R,2S)-5′-methoxy-2-(3-{[5-methoxy-2-(oxan-4-yl)pyrimidin-4-yl]amino}-1H-indazol-6-yl)spiro[cyclopropane-1,3′-indol]-2′(1′H)-one]	260
1.03	68.0773	305.4106	COc1ccc2c(c1)[C@]1(C[C@H]1c1ccc3c(Nc4nc(SC)ncc4OC)n[nH]c3c1)C(=O)N2 [Example 155, (1R,2S)-5′-methoxy-2-(3-{[5-methoxy-2-(methylsulfanyl)pyrimidin-4-yl]amino}-1H-indazol-6-yl)spiro[cyclopropane-1,3′-indol]-2′(1′H)-one]	192
1.95	303.9548	510.6317	COc1ccc2c(c1)[C@]1(C[C@H]1c1ccc3c(Nc4nc(N5CCC5)ncc4OC)n[nH]c3c1)C(=O)N2 [Example 157, (1R,2S)-2-(3-{[2-(azetidin-1-yl)-5-methoxypyrimidin-4-yl]amino}-1H-indazol-6-yl)-5′-methoxyspiro[cyclopropane-1,3′-indol]-2′(1′H)-one]	288
1.96	58.0530	309.7350	COc1ccc2c(c1)[C@]1(C[C@H]1c1ccc3c(Nc4nc(C)nc5c4CCC5)n[nH]c3c1)C(=O)N2 [Example 159, (1R,2S)-5′-methoxy-2-{3-[(2-methyl-6,7-dihydro-5H-cyclopenta[d]pyrimidin-4-yl)amino]-1H-indazol-6-yl}spiro[cyclopropane-1,3′-indol]-2′(1′H)-one]	1300
1.93	149.5859	545.5487	CCc1ncc(OC)c(Nc2n[nH]c3cc([C@@H]4C[C@@]45C(=O)Nc4ccc(OC)cc45)ccc23)n1 [Example 160, (1R,2S)-2-{3-[(2-ethyl-5-methoxypyrimidin-4-yl)amino]-1H-indazol-6-yl}-5′-methoxyspiro[cyclopropane-1,3′-indol]-2′(1′H)-one]	310
2.21	258.4163	291.4932	COc1ccc2c(c1)[C@]1(C[C@H]1c1ccc3c(Nc4cc5cccnc5cc4OC)n[nH]c3c1)C(=O)N2 [Example 161, (1R,2S)-5′-methoxy-2-{3-[(7-methoxyquinolin-6-yl)amino]-1H-indazol-6-yl}spiro[cyclopropane-1,3′-indol]-2′(1′1H)-one]	352
1.52	389.4357	2164.0420	COc1ccc2c(c1)[C@]1(C[C@H]1c1ccc3c(Nc4nc5ccccc5cc4OC)n[nH]c3c1)C(=O)N2 [Example 163, (1R,2S)-5′-methoxy-2-{3-[(3-methoxyquinolin-2-yl)amino]-1H-indazol-6-yl}spiro[cyclopropane-1,3′-indol]-2′(1′H)-one]	226
6.28	161.2235	397.0049	COc1cnc(OC)c(Nc2n[nH]c3cc([C@@H]4C[C@@]45C(=O)Nc4ccc(OC)cc45)ccc23)c1 [Example 164, (1R,2S)-2-{3-[(2,5-dimethoxypyridin-3-yl)amino]-1H-indazol-6-yl}-5′-methoxyspiro[cyclopropane-1,3′-indol]-2′(1′H)-one]	1640
4.68	76.9329	111.2559	COc1ccc2c(c1)[C@]1(C[C@H]1c1ccc3c(Nc4nc(Cl)nc5ccoc45)n[nH]c3c1)C(=O)N2 [Example 165, (1R,2S)-2-{3-[(2-chlorofuro[3,2-d]pyrimidin-4-yl)amino]-1H-indazol-6-yl}-5′-methoxyspiro[cyclopropane-1,3′-indol]-2′(1′H)-one]	1060
0.802	68.4539	1151.3716	COc1ccc2c(c1)[C@]1(C[C@H]1c1ccc3c(Nc4ccc(C(=O)N(C)C)nc4OC)n[nH]c3c1)C(=O)N2 [Example 166, 6-methoxy-5-({6-[(1R,2S)-5′-methoxy-2′-oxo-1′,2′-dihydrospiro[cyclopropane-1,3′-indol]-2-yl]-1H-indazol-3-yl}amino)-N,N-dimethylpyridine-2-carboxamide]	80.6
1.18	916.9492	295.5932	COc1ccc2c(c1)[C@]1(C[C@H]1c1ccc3c(Nc4nc(N5CCCC5)ncc4OC)n[nH]c3c1)C(=O)N2 [Example 167, (1R,2S)-5′-methoxy-2-(3-{[5-methoxy-2-(pyrrolidin-1-yl)pyrimidin-4-yl)amino}-1H-indazol-6-yl)spiro[cyclopropano-1,3′-indol]-2′(1′H)-one]	212
0.995	431.4573	666.9347	COc1ccc2c(c1)[C@]1(C[C@H]1c1ccc3c(Nc4nc(N5CC[C@@H](F)C5)ncc4OC)n[nH]c3c1)C(=O)N2 [Example 169]	188
1.36	587.9234	694.1090	COc1ccc2c(c1)[C@]1(C[C@H]1c1ccc3c(Nc4nc(N5CCC(F)(F)C5)ncc4OC)n[nH]c3c1)C(=O)N2 [Example 170, (1R,2S)-2-(3-{[2-(3,3-difluoropyrrolidin-1-yl)-5-methoxypyrimidin-4-yl]amino}-1H-indazol-6-yl)-5′-methoxyspiro[cyclopropane-1,3′-indol]-2′(1′H)-one]	326
5.87	259.2403	1176.6309	COc1ccc2c(c1)[C@]1(C[C@H]1c1ccc3c(Nc4nc(Cl)nc5ccn(C)c45)n[nH]c3c1)C(=O)N2 [Example 171, (1R,2S)-2-{3-[(2-chloro-5-methyl-5H-pyrrolo[3,2-d]pyrimidin-4-yl)amino]-1H-indazol-6-yl}-5′-methoxyspiro[cyclopropane-1,3′-indol]-2′(1′H)-one]	1520
4.09	202.96	324.94	COc1ccc2c(c1)[C@]1(C[C@H]1c1ccc3c(Nc4nc(C#N)ncc4OC)n[nH]c3c1)C(=O)N2 [Example 172, 5-methoxy-4-({6-[(1R,2S)-5′-methoxy-2′-oxo-1′,2′-dihydrospiro[cyclopropane-1,3′-indol]-2-yl]-1H-indazol-3-yl}amino)pyrimidine-2-carbonitrile]	1260
